Data taken from patent US20250188037A1, “N-(PYRROLIDIN-3-YL OR PIPERIDIN-4-YL)ACETAMIDE DERIVATIVES” (Takeda Pharmaceutical Company Limited, priority 2022, published 2025).
Read-outs that look alike come from different tables or passages of the source.

Assays:
SSTR4 [1] = molecular target: T1, SSTR4 (Homo sapiens (Human), UniProt P31391); assay: Inhibition of forskolin stimulated cAMP in cells overexpressing SSTR4; format: cell-based; details: inhibition of forskolin stimulated cAMP in CHO-K1 cells overexpressing SSTR4; read-out: SSTR4 Activity pEC50 (converted)
Procedure: Inhibition of Forskolin Stimulated cAMP in Cells Overexpressing SSTR4
This cell-based assay measures the ability of compounds to inhibit forskolin stimulated cAMP in CHO-K1 cells overexpressing SSTR4. CHO-K1 cells overexpressing SSTR4 (CHO-SSTR4) are purchased from DiscoveRx (product code 95-0059C2). The CHO-SSTR4 cells are maintained in F12K media with 10% Fetal Bovine Serum (Hyclone), 1% Pen/Strep (Life Technologies), and 800 μg/mL G418 (Life Technologies). […] The next day, the culture media is removed from the cells and the cells are washed (added then removed) with Krebs Ringer Buffer (ZenBio, KRB-1000 mL). […] The cells are incubated in 10 μL compound/stimulation buffer for 30 minutes at room temperature. Cellular cAMP levels are detected with a HTRF LANCE Ultra cAMP kit (Perkin Elmer, catalog number TRF0264).
The assay is performed in accordance with the manufacturer's instructions. […] of diluted Eu—W8044 labeled streptavidin (dilution: 1:50 in cAMP Detection Buffer) is added to each well. Then 5 μL of diluted biotin cAMP (dilution: 1:150 in cAMP Detection Buffer) is added to each well. The plates are covered and allowed to incubate for 60 minutes at room temperature on a shaker. […] The pEC50 values are generated using Activity Base for Screening Data Management.

SSTR4 [2] = molecular target: T1, SSTR4; assay: SSTR4 I-125 somatostatin competition binding assay; details: for IC50: membranes from CHO-K1 cells overexpressing SSTR4, read-out: SSTR4 Binding pIC50 (converted); for SSTR4 Binding pIC50: membranes from CHO-K1 cells overexpressing SSTR4
Excerpt: The scintillator sheets are melted to filters using a heat block.

SSTR1 [3] = molecular target: T2, SSTR1 (Homo sapiens (Human), UniProt P30872); assay: biochemical;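 further: binding assay on CHO-K1 cell membranes overexpressing SSTR1, incubated 60 min at room temperature, bound fraction collected on filters and read by scintillation counting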
Procedure: (§1) Membranes from CHO-K1 cells overexpressing SSTR1 are purchased from Perkin Elmer (catalog number ES-520-M400UA). […] Then 10 μg of SSTR1 membranes in 50 μL assay buffer are added per well. The plate is incubated for 60 minutes at room temperature. […] The contents of the assay plate are transferred to filters with a TomTech harvester and washed 5 times with 20 mM HEPES, 100 mM NaCl. […] The scintillator sheets are melted to the filters using a heat block. The filters are then read in a MicroBeta scintillation counter. Binding Ki curves are generated using Activity Base for Screening Data Management and the results are reported as pIC50.

SSTR1 [4] = molecular target: T2, SSTR1
Procedure: as §1

T1 sequence (P31391 whole entry): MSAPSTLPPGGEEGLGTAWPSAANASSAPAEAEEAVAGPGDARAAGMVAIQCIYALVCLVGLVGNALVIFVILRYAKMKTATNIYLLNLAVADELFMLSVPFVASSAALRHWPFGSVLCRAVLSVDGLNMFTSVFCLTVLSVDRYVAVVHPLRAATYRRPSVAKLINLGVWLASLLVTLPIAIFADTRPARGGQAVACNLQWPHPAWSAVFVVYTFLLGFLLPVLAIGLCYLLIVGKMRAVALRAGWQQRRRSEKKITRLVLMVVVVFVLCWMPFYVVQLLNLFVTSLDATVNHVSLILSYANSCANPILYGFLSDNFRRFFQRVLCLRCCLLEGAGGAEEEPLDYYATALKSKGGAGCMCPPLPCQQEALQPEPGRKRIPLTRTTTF
T2 sequence (P30872 whole entry): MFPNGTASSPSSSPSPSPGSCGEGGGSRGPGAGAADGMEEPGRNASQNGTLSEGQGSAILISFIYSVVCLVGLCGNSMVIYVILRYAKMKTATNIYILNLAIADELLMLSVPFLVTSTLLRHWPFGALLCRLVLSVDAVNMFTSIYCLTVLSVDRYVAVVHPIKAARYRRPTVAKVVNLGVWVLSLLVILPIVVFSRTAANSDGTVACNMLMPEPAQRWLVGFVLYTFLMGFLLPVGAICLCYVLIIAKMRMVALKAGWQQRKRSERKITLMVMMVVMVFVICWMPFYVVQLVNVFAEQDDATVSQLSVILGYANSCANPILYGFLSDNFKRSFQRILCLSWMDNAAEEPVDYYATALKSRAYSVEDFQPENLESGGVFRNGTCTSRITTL

| EC50 (SSTR4 [1]) | IC50 (SSTR4 [2]) | IC50 (SSTR1 [3]) | SSTR4 Binding pIC50 (SSTR4 [2]) | IC50 (SSTR1 [4]) | Compound |
| --- | --- | --- | --- | --- | --- |
| 70.8 nM | 513 nM | 15500 nM |  |  | C[C@@H]1CN(C)CC[C@H]1NC(=O)C1(Cc2ccc(F)cc2)CC1 (racemic) [Example 10, N-(trans-1,3-dimethylpiperidin-4-yl)-1-(4-fluorobenzyl)cyclopropane-1-carboxamide] |
| 57.5 nM | 891 nM | 15800 nM |  |  | Cc1ccccc1CC1(C(=O)N[C@@H]2CCN(C)C[C@H]2C)CC1 (racemic) [Example 12, N-(trans-1,3-dimethylpiperidin-4-yl)-1-(2-methylbenzyl)cyclopropane-1-carboxamide] |
| 63.1 nM |  |  | 6.87 | > 50100 nM | O=C(N[C@H]1CCNC[C@@H]1F)C1(Cc2ccccc2F)CC1 [Example 43, 1-(2-fluorobenzyl)-N-((3S,4S)-3-fluoropiperidin-4-yl)cyclopropane-1-carboxamide] |
| 2 nM |  |  | 7.58 | 4680 nM | C[C@H]1CNCC[C@@H]1NC(=O)C1(Cc2ccc(Cl)cc2)CC1 [Example 18, 1-(4-chlorobenzyl)-N-((3S,4S)-3-methylpiperidin-4-yl)cyclopropane-1-carboxamide] |
| 26.3 nM |  |  | 6.66 | 5890 nM | C[C@H]1CN(C)CC[C@@H]1NC(=O)C1(Cc2ccc(F)cc2)CC1 [Example 35, N-((3S,4S)-1,3-dimethylpiperidin-4-yl)-1-(4-fluorobenzyl)cyclopropane-1-carboxamide] |
| 19.5 nM |  |  | 7.23 | > 50100 nM | Cc1ccccc1CC1(C(=O)N[C@H]2CCNC[C@@H]2F)CC1 [Example 24, N-((3S,4S)-3-fluoropiperidin-4-yl)-1-(2-methylbenzyl)cyclopropane-1-carboxamide] |
| 23.4 nM |  |  | 7.13 | 42700 nM | O=C(N[C@H]1CCNC[C@@H]1F)C1(Cc2ccc(Cl)cc2)CC1 [Example 23, 1-(4-chlorobenzyl)-N-((3S,4S)-3-fluoropiperidin-4-yl)cyclopropane-1-carboxamide] |

More lines, now with the values behind:

| Compound | EC50 (SSTR4 [1]) | IC50 (SSTR4 [2]) | IC50 (SSTR1 [3]) | SSTR4 Binding pIC50 (SSTR4 [2]) | IC50 (SSTR1 [4]) |
| --- | --- | --- | --- | --- | --- |
| Cc1ccc(OC(F)(F)C(=O)NC2CCNCC2)cc1 [Example 34, 2,2-difluoro-N-(piperidin-4-yl)-2-(p-tolyloxy)acetamide] | 47.9 nM |  |  | 6.17 | > 50100 nM |
| C[C@H]1C[C@H](NC(=O)C(F)(F)Oc2ccccc2)CCN1 [Example 53, 2,2-difluoro-N-((2S,4R)-2-methylpiperidin-4-yl)-2-phenoxyacetamide] | 55 nM |  |  | 5.43 | > 50100 nM |
| C[C@@H]1C[C@H](NC(=O)C(F)(F)Oc2ccccc2)CCN1 [Example 51, 2,2-difluoro-N-((2R,4R)-2-methylpiperidin-4-yl)-2-phenoxyacetamide] | 35.5 nM |  |  | 5.53 | > 50100 nM |
| O=C(NC1CCNCC1)C(F)(F)Oc1ccccc1Cl [Example 70, 2-(2-chlorophenoxy)-2,2-difluoro-N-(piperidin-4-yl)acetamide] | 18.2 nM |  |  | 6.48 | > 50100 nM |
| C[C@H]1C[C@@H](NC(=O)C(F)(F)Oc2ccccc2)CCN1 [Example 48, 2,2-difluoro-N-((2S,4S)-2-methylpiperidin-4-yl)-2-phenoxyacetamide] | 91.2 nM |  |  | 5.43 | > 50100 nM |
| O=C(NC1CCNCC1)C(F)(F)Oc1ccccc1 [Example 14, 2,2-difluoro-2-phenoxy-N-(piperidin-4-yl)acetamide] | 67.6 nM |  |  | 6.39 | > 50100 nM |
| Cc1cccc(CC2(C(=O)N[C@@H]3CN(C)C[C@H]3C(C)C)CC2)c1 (racemic) [Example 3, N-(trans-4-isopropyl-1-methylpyrrolidin-3-yl)-1-(3-methylbenzyl)cyclopropane-1-carboxamide] | 12.6 nM | 91.2 nM | 5370 nM |  |  |
| C[C@H]1CNCC[C@@H]1NC(=O)C(F)(F)Oc1ccccc1C#N [Example 33, 2-(2-cyanophenoxy)-2,2-difluoro-N-((3S,4S)-3-methylpiperidin-4-yl)acetamide] | 16.6 nM |  |  | 6.79 | > 50100 nM |
| C[C@H]1CNCC[C@@H]1NC(=O)C(F)(F)Oc1ccccc1Cl [Example 64, 2-(2-chlorophenoxy)-2,2-difluoro-N-((3S,4S)-3-methylpiperidin-4-yl)acetamide] | 1.32 nM |  |  | 7.25 | 19100 nM |
| C[C@@H]1C[C@H](NC(=O)C2(CN(C)c3cccc(Cl)n3)CC2)CCN1C [Example 41, 1-(((6-chloropyridin-2-yl)(methyl)amino)methyl)-N-((2R,4R)-1,2-dimethylpiperidin-4-yl)cyclopropane-1-carboxamide] | 56.2 nM |  |  | 6.53 | > 50100 nM |
| N#Cc1ccccc1OC(F)(F)C(=O)NC1CCNCC1 [Example 32, 2-(2-cyanophenoxy)-2,2-difluoro-N-(piperidin-4-yl)acetamide] | 50.1 nM |  |  | 5.49 | > 50100 nM |
